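Step 1: Grow cells in 96-well plates. Step 2: Expose to compound for 48 hours at 5 concentrations. Step 3: Interpolate endpoints linearly; if unreached, use highest concentration. Here, GI50 denotes the concentration required for 50% inhibition of growth. TGI denotes the concentration required for complete inhibition of growth.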
What was measured:
Assay in all cases: NCI-60 cell line screen, 48 h
786-0 renal = tested on: 786-0 renal
A498 renal = tested on: A498 renal
A549 NSCLC = tested on: A549 NSCLC
ACHN renal = tested on: ACHN renal
BT-549 breast = tested on: BT-549 breast
CAKI-1 renal = tested on: CAKI-1 renal
CCRF-CEM leukemia = tested on: CCRF-CEM leukemia
COLO 205 colon = tested on: COLO 205 colon
DU-145 prostate = tested on: DU-145 prostate
EKVX NSCLC = tested on: EKVX NSCLC
HCC-2998 colon = tested on: HCC-2998 colon
HCT-116 colon = tested on: HCT-116 colon
HCT-15 colon = tested on: HCT-15 colon
HL-60(TB) leukemia = tested on: HL-60(TB) leukemia
HOP-62 NSCLC = tested on: HOP-62 NSCLC
HOP-92 NSCLC = tested on: HOP-92 NSCLC
HS 578T breast = tested on: HS 578T breast
HT29 colon = tested on: HT29 colon
IGROV1 ovarian = tested on: IGROV1 ovarian
K-562 leukemia = tested on: K-562 leukemia
KM12 colon = tested on: KM12 colon
LOX IMVI melanoma = tested on: LOX IMVI melanoma
M14 melanoma = tested on: M14 melanoma
MALME-3M melanoma = tested on: MALME-3M melanoma
MCF7 breast = tested on: MCF7 breast
MDA-MB-231 breast = tested on: MDA-MB-231 breast
MDA-MB-435 = tested on: MDA-MB-435
MOLT-4 leukemia = tested on: MOLT-4 leukemia
NCI-H226 lung = tested on: NCI-H226 lung
NCI-H23 lung = tested on: NCI-H23 lung
NCI-H460 lung = tested on: NCI-H460 lung
NCI-H522 lung = tested on: NCI-H522 lung
NCI/ADR-RES ovarian = tested on: NCI/ADR-RES ovarian
OVCAR-3 ovarian = tested on: OVCAR-3 ovarian
OVCAR-4 ovarian = tested on: OVCAR-4 ovarian
OVCAR-8 ovarian = tested on: OVCAR-8 ovarian
PC-3 prostate = tested on: PC-3 prostate
RPMI-8226 leukemia = tested on: RPMI-8226 leukemia
RXF 393 renal = tested on: RXF 393 renal
SF-268 CNS = tested on: SF-268 CNS
SF-295 CNS = tested on: SF-295 CNS
SF-539 CNS = tested on: SF-539 CNS
SK-MEL-28 melanoma = tested on: SK-MEL-28 melanoma
SK-MEL-5 melanoma = tested on: SK-MEL-5 melanoma
SK-OV-3 ovarian = tested on: SK-OV-3 ovarian
SN12C renal = tested on: SN12C renal
SNB-19 CNS = tested on: SNB-19 CNS
SR leukemia = tested on: SR leukemia
SW-620 colon = tested on: SW-620 colon
T-47D breast = tested on: T-47D breast
TK-10 renal = tested on: TK-10 renal
UACC-257 melanoma = tested on: UACC-257 melanoma
UACC-62 melanoma = tested on: UACC-62 melanoma
UO-31 renal = tested on: UO-31 renal
OVCAR-5 ovarian = tested on: OVCAR-5 ovarian
SK-MEL-2 melanoma = tested on: SK-MEL-2 melanoma
SNB-75 CNS = tested on: SNB-75 CNS
U251 CNS = tested on: U251 CNS

SMILES: O=C(C(Cl)=C(Nc1ccccc1)Nc1ccccc1)C(Cl)Cl
- TGI (786-0 renal): 69.1 µM
- TGI (A498 renal): 74.5 µM
- TGI (A549 NSCLC): > 100 µM
- TGI (ACHN renal): > 100 µM
- TGI (BT-549 breast): > 100 µM
- TGI (CAKI-1 renal): 45 µM
- TGI (CCRF-CEM leukemia): 77.6 µM
- TGI (COLO 205 colon): 97.7 µM
- TGI (DU-145 prostate): > 100 µM
- TGI (EKVX NSCLC): 70.2 µM
- TGI (HCC-2998 colon): 37.3 µM
- TGI (HCT-116 colon): 60.2 µM
- TGI (HCT-15 colon): 34.1 µM
- TGI (HL-60(TB) leukemia): 51.9 µM
- TGI (HOP-62 NSCLC): 69.7 µM
- TGI (HOP-92 NSCLC): 65.6 µM
- TGI (HS 578T breast): > 100 µM
- TGI (HT29 colon): 48.1 µM
- TGI (IGROV1 ovarian): > 100 µM
- TGI (K-562 leukemia): 86.4 µM
- TGI (KM12 colon): > 100 µM
- TGI (LOX IMVI melanoma): 30.3 µM
- TGI (M14 melanoma): 43.8 µM
- TGI (MALME-3M melanoma): 45 µM
- TGI (MCF7 breast): 62.5 µM
- TGI (MDA-MB-231 breast): 91.2 µM
- TGI (MDA-MB-435): 39.8 µM
- TGI (MOLT-4 leukemia): 45.1 µM
- TGI (NCI-H226 lung): 93.6 µM
- TGI (NCI-H23 lung): 93.2 µM
- TGI (NCI-H460 lung): > 100 µM
- TGI (NCI-H522 lung): 37.4 µM
- TGI (NCI/ADR-RES ovarian): > 100 µM
- TGI (OVCAR-3 ovarian): 79.3 µM
- TGI (OVCAR-4 ovarian): > 100 µM
- TGI (OVCAR-8 ovarian): 42.8 µM
- TGI (PC-3 prostate): > 100 µM
- TGI (RPMI-8226 leukemia): 78.9 µM
- TGI (RXF 393 renal): 56.1 µM
- TGI (SF-268 CNS): 76.7 µM
- TGI (SF-295 CNS): > 100 µM
- TGI (SF-539 CNS): > 100 µM
- TGI (SK-MEL-28 melanoma): > 100 µM
- TGI (SK-MEL-5 melanoma): 35.6 µM
- TGI (SK-OV-3 ovarian): 94.6 µM
- TGI (SN12C renal): 79.7 µM
- TGI (SNB-19 CNS): 71.3 µM
- TGI (SR leukemia): 49.4 µM
- TGI (SW-620 colon): 57 µM
- TGI (T-47D breast): 75.9 µM
- TGI (TK-10 renal): > 100 µM
- TGI (UACC-257 melanoma): > 100 µM
- TGI (UACC-62 melanoma): 54.1 µM
- TGI (UO-31 renal): > 100 µM

SMILES: Cn1cc(C2=C(c3cn(CCCSC(=N)N)c4ccccc34)C(=O)NC2=O)c2ccccc21
- GI50 (786-0 renal): 4.71 µM
- TGI (786-0 renal): 10.9 µM
- GI50 (A498 renal): 5 µM
- TGI (A498 renal): 12 µM
- GI50 (A549 NSCLC): 4.73 µM
- TGI (A549 NSCLC): 12.9 µM
- GI50 (ACHN renal): 4.42 µM
- TGI (ACHN renal): 9.31 µM
- GI50 (BT-549 breast): 4.83 µM
- TGI (BT-549 breast): 10.8 µM
- GI50 (CAKI-1 renal): 7.68 µM
- TGI (CAKI-1 renal): 23.4 µM
- GI50 (CCRF-CEM leukemia): 971 nM
- TGI (CCRF-CEM leukemia): 3.93 µM
- GI50 (COLO 205 colon): 668 nM
- TGI (COLO 205 colon): 1.92 µM
- GI50 (DU-145 prostate): 4.78 µM
- TGI (DU-145 prostate): 12.5 µM
- GI50 (HCC-2998 colon): 3.05 µM
- TGI (HCC-2998 colon): 8.89 µM
- GI50 (HCT-116 colon): 1100 nM
- TGI (HCT-116 colon): 4.62 µM
- GI50 (HCT-15 colon): 4.71 µM
- TGI (HCT-15 colon): 11.1 µM
- GI50 (HL-60(TB) leukemia): 789 nM
- TGI (HL-60(TB) leukemia): 2.14 µM
- GI50 (HOP-62 NSCLC): 2360 nM
- TGI (HOP-62 NSCLC): 7.39 µM
- GI50 (HOP-92 NSCLC): 3.83 µM
- TGI (HOP-92 NSCLC): 11.2 µM
- GI50 (HS 578T breast): 1910 nM
- TGI (HS 578T breast): 9.96 µM
- GI50 (HT29 colon): 2730 nM
- TGI (HT29 colon): 11.1 µM
- GI50 (IGROV1 ovarian): 3.03 µM
- TGI (IGROV1 ovarian): 12.3 µM
- GI50 (K-562 leukemia): 2670 nM
- TGI (K-562 leukemia): 6.78 µM
- GI50 (KM12 colon): 2070 nM
- TGI (KM12 colon): 5.97 µM
- GI50 (LOX IMVI melanoma): 1910 nM
- TGI (LOX IMVI melanoma): 5.45 µM
- GI50 (M14 melanoma): 3.56 µM
- TGI (M14 melanoma): 7.77 µM
- GI50 (MALME-3M melanoma): 3.84 µM
- TGI (MALME-3M melanoma): 8.34 µM
- GI50 (MCF7 breast): 799 nM
- TGI (MCF7 breast): 3 µM
- GI50 (MDA-MB-231 breast): 2110 nM
- TGI (MDA-MB-231 breast): 9.52 µM
- GI50 (MDA-MB-435): 1810 nM
- TGI (MDA-MB-435): 5.59 µM
- GI50 (MOLT-4 leukemia): 1930 nM
- TGI (MOLT-4 leukemia): 8.08 µM
- GI50 (NCI-H226 lung): 1490 nM
- TGI (NCI-H226 lung): 7.29 µM
- GI50 (NCI-H23 lung): 3.32 µM
- TGI (NCI-H23 lung): 9.72 µM
- GI50 (NCI-H460 lung): 3.65 µM
- TGI (NCI-H460 lung): 7.54 µM
- GI50 (NCI-H522 lung): 1510 nM
- TGI (NCI-H522 lung): 5.27 µM
- GI50 (NCI/ADR-RES ovarian): > 25 µM
- TGI (NCI/ADR-RES ovarian): > 25 µM
- GI50 (OVCAR-3 ovarian): 2400 nM
- TGI (OVCAR-3 ovarian): 9.28 µM
- GI50 (OVCAR-4 ovarian): 3.23 µM
- TGI (OVCAR-4 ovarian): 9.88 µM
- GI50 (OVCAR-5 ovarian): 4.51 µM
- TGI (OVCAR-5 ovarian): 18.6 µM
- GI50 (OVCAR-8 ovarian): 4 µM
- TGI (OVCAR-8 ovarian): 11.4 µM
- GI50 (PC-3 prostate): 3.38 µM
- TGI (PC-3 prostate): 11.1 µM
- GI50 (RPMI-8226 leukemia): 4.61 µM
- TGI (RPMI-8226 leukemia): 10.3 µM
- GI50 (RXF 393 renal): 1180 nM
- TGI (RXF 393 renal): 2.82 µM
- GI50 (SF-268 CNS): 1760 nM
- TGI (SF-268 CNS): 7.52 µM
- GI50 (SF-295 CNS): 5.19 µM
- TGI (SF-295 CNS): 14.1 µM
- GI50 (SF-539 CNS): 1900 nM
- TGI (SF-539 CNS): 5.16 µM
- GI50 (SK-MEL-2 melanoma): 1530 nM
- TGI (SK-MEL-2 melanoma): 5.2 µM
- GI50 (SK-MEL-28 melanoma): 1300 nM
- TGI (SK-MEL-28 melanoma): 4.48 µM
- GI50 (SK-MEL-5 melanoma): 1560 nM
- TGI (SK-MEL-5 melanoma): 4.27 µM
- GI50 (SK-OV-3 ovarian): 5 µM
- TGI (SK-OV-3 ovarian): 15.4 µM
- GI50 (SN12C renal): 1830 nM
- TGI (SN12C renal): 5.56 µM
- GI50 (SNB-19 CNS): 1400 nM
- TGI (SNB-19 CNS): 8.99 µM
- GI50 (SNB-75 CNS): 674 nM
- TGI (SNB-75 CNS): 4.33 µM
- GI50 (SR leukemia): 585 nM
- TGI (SR leukemia): 1.69 µM
- GI50 (SW-620 colon): 1660 nM
- TGI (SW-620 colon): 5.51 µM
- GI50 (T-47D breast): 1110 nM
- TGI (T-47D breast): 5.12 µM
- GI50 (TK-10 renal): 3.88 µM
- TGI (TK-10 renal): 10.7 µM
- GI50 (U251 CNS): 1610 nM
- TGI (U251 CNS): 5.06 µM
- GI50 (UACC-257 melanoma): 3.22 µM
- TGI (UACC-257 melanoma): 6.73 µM
- GI50 (UACC-62 melanoma): 2540 nM
- TGI (UACC-62 melanoma): 5.7 µM
- GI50 (UO-31 renal): 5.59 µM
- TGI (UO-31 renal): 16.2 µM
